Test results published in patent US5474988A, “5-phenylpyrrolo-1,4-benzoxazine and 5-phenylpyrrolo-1,4-benzothiazine compounds, process and intermediates for their production and pharmaceutical compositions containing them” (Kali-Chemie Pharma GmbH, priority 1993, dated 1995).

Assays:
[1] = system: P.A.F.-induced aggregation of blood platelets; assay: anti-P.A.F. action in vitro (P.A.F.-induced platelet aggregation); format: cell-based; conditions: Oryctolagus cuniculus, 10^-5 mole/liter, read-out: Anti-P.A.F. activity in vitro, % inhibition of the P.A.F.-induced aggregation of blood platelets from rabbit blood
Text: 3. Determination of the anti-P.A.F. action in vitro.
P.A.F. (=Platelet Activating Factor=Platelet Aggregation Factor) is a phospholipid mediator which has a multiplicity of actions. The activation of blood platelet aggregation results in the induction of long-lasting bronchoconstrictions and hyperreactivity of the respiratory passages.
In this test, the effect of the test substances on platelet aggregation induced by addition of P.A.F. in a platelet suspension obtained from rabbit blood was investigated according to the method described by Mikashima et al. (Jap. J. Pharmacol. 44 (1987) 387-391).
A suspension of platelets obtained from rabbit blood was used which contains 4×10^9 platelets/ml in a modified Tyrode buffer solution (=Tyrode solution with the addition of 1.3 mM/l of CaCl2 and 2.5 g/l of gelatine) adjusted to pH 7.4. Tyrode solution is an aqueous solution containing, per liter, 136.9 mmole of NaCl, 2.68 mmole of KCl, 2.31 mmole of CaCl2, 1.0 mmole of MgCl2, 11.9 mmole of NaHCO3, 1.45 mmole of NaH2 PO4 and 5.55 mmole of glucose. The platelets were concentrated from 10 ml blood samples of three rabbits (New Zealand hybrids, body weight 3-4 kg) in each case. To accomplish this, the blood samples were treated with ethylenediaminetetraacetic acid and washed according to the method of Artley et al. (Brit. J. Haematol. 19 (1970), 7-17). A platelet-rich plasma was first separated by centrifugation (20 minutes at 400×g). The platelets were separated from the plasma by repeated centrifugation for 15 minutes at 1400×g.After the centrifugation, the blood platelets remaining in the sediment were resuspended in a Tyrode buffer solution (but without calcium). 0.4 mmole of lysine acetylsalicylate was then added, and the blood platelets were sedimented again after 15 minutes. The sediment was resuspended in the aforementioned modified Tyrode buffer solution, and the number of platelets in the suspension obtained was adjusted to the desired content.
A 40×10^-9 molar P.A.F. solution was employed as a reagent. This solution was prepared from a 1.8×10^-3 molar stock solution in chloroform. To do this, a 10 μl sample of the stock solution was evaporated to dryness and dissolved again in 180 μl of the modified Tyrode buffer solution, to which 0.25% of lipid-free bovine serum albumin had been added. 10^-5 molar working solutions were then prepared from this and stored frozen. Samples of these solutions were appropriately diluted for tests.
In order to carry out the test, 50 μl of the blood platelet suspension and 10 μl of a 40×10^-5 molar solution of the compound to be investigated were added to […] of the modified Tyrode buffer solution with stirring (1000 rpm) in an aggregation tube provided with a small magnetic stirrer. This corresponded to a final test substance concentration of 10^-5 mole/l. After a preincubation time of 90 seconds, 10 μl of the P.A.F. preparation were added. For 4-5 minutes, the aggregation occurring in the aggregation tube was measured by means of a computerized aggregometer.
The aggregation occurring in the test tubes containing only the platelet suspension is rated as 0%. The aggregation occurring in the test tubes containing platelet suspension and P.A.F. preparation, in which a P.A.F.-induced increase in platelet aggregation takes place, is rated as 100%. The aggregation still occurring after addition of the test substances is measured, and from this the inhibition of the P.A.F.-inducedincrease in aggregation which takes place is calculated in %.

[2] = biological target: T1, 5-lipoxygenase (Cavia porcellus, UniProt A0A286X958); assay: inhibitory activity on free 5-lipoxygenase concentrated from peritoneal PMNs of the guinea-pig (5-HETE formation); format: biochemical; conditions: 10^-5 mole/liter; guinea-pig 5-LO, 37° C.; read-out: In vitro % inhibitory activity on 5-HETE formation caused by free 5-LO
T1 construct: The 5-LO was concentrated in a known manner from PMNs of male Dunkin-Hartley guinea-pigs; endogenous in cells; host or cells: peritoneal PMNs of male Dunkin-Hartley guinea-pigs, homogenized; 10,000 x g supernatant used as enzyme solution
T1 sequence (A0A286X958 1-674): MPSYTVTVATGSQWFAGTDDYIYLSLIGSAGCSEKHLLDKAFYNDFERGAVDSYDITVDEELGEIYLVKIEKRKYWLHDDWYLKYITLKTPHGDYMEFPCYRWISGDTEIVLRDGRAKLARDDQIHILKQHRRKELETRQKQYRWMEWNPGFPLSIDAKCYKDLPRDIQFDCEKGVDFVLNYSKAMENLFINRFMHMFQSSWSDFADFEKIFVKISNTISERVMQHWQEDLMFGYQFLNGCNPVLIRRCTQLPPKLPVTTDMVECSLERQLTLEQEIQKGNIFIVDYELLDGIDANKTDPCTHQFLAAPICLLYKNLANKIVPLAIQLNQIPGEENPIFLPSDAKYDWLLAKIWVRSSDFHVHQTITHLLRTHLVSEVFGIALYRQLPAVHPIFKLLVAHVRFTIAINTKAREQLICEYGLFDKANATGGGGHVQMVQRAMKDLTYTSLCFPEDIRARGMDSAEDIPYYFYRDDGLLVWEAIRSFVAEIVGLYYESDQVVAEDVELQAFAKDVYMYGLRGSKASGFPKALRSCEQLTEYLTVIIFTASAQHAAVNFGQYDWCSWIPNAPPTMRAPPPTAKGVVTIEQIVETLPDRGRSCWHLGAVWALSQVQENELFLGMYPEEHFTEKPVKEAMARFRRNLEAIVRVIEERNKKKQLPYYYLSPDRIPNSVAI
Text: 4b. In vitro determination of inhibitory activity on 5-lipoxygenase concentrated from peritoneal PMNs of the guinea-pig.
An inhibition of 5-lipoxygenase can be caused by direct inhibitory action of the substances on the enzyme and/or by interference with the activation of the enzyme. While in test 4a the 5-lipoxygenase inhibition of the substances was investigated in rat PMN cells, in test 4b the inhibitory activity of the substances was investigated on free 5-LO concentrated from guinea-pig PMN cells according to the method of D. Aharony et al., J. Biol. Chem. 261 (1986), 11512-11519 (1986).
The 5-LO was concentrated in a known manner from PMNs of male Dunkin-Hartley guinea-pigs (body weight 400 to 500 g) as follows. 10 ml of a solution containing 27.9 g/l of sodium thioglycolate were injected i.p. into the animals in order to induce the PMN invasion as a result of this inflammatory stimulus. After 22 hours, the animals were sacrificed by lethal ether anaesthesia. 70 ml of HBSS without Ca^++ and Mg^++ ions and containing 0.2% by weight of sodium citrate were then injected into the abdominal cavity. The cell suspension (>80% of the cells are PMNs) was withdrawn from the abdominal cavity, filtered through a cheese-making filter cloth, and washed twice with a 50 mM potassium phosphate buffer solution of pH 7.4, which contained 0.5 mM ethylenediaminetetraacetic acid, 1% by weight of gelatine and 20 μM indomethacin. The cells were resuspended, and the PMN suspension containing 10^8 cells/ml was homogenized three times for 15 seconds each in an ice-bath in a homogenizer of the Labsonic™ type set at high speed. The resulting suspension was centrifuged at 4° C. (15 minutes at 10,000×g). The supernatant liquid was used for the investigation as a solution of the free 5-LO enzyme.
The experiments were carried out at 37° C. for 7 minutes using 0.625 ml samples of this enzyme solution. For the experiments, the enzyme solution (=equivalent of 2.5×10^7 cells), 0.5 mM glutathione, 1 mM ATP and 0.3 mM calcium chloride were added to test tubes. […] of the test substance were added to the samples dissolved in sufficient dimethylformamide such that the dimethylformamide concentration in each test tube is 0.5%. Only dimethylformamide was added to the control samples. After 2 minutes, the formation of 5-(S)-hydroxy-6,8,11,14-eicosatetraenoic acid (=[…]) was initiated by addition 10 μM arachidonic acid. After 5 minutes, the reaction was terminated by addition of 0.625 ml of a mixture of methyl acetate/methanol/0.2 m citric acid 15:2:0.5 v/v/v. 5-HETE was extracted twice using this solvent mixture. The 5-HETE-containing phases were combined and evaporated to dryness under a nitrogen atmosphere. The residue was taken up in a mixture of methanol/water/acetic acid 75:21:0.02 v/v/v having a pH of 5.7, and the solution was investigated for its content of 5-HETE by means of reverse phase HPLC. To accomplish this, a […] silanized silica gel column (Hichrom® ODS2, 250×4.6 mm) was employed as the adsorbent and a mixture of methanol/water/acetic acid 75:21:0.02 adjusted to pH 5.7 with ammonia and having a flow rate of 1 ml/min was used as the eluent. 5-HETE, which was eluted as a single peak after 20 minutes, was identified by comparison with standard solutions eluted at the same time and determined using a UV light detector at a wavelength of 235 nm. Quantitative determination was carried out by comparison of the peak area obtained with peak areas occurring in the calibrated standard solutions. From the 5-HETE contents of the samples determined, the inhibitory activity of the test substances was calculated in % inhibition of 5-HETE synthesis in comparison to the control samples containing no test substance.

| inhibition at 10 µM [2] | Compound | inhibition at 10 µM [1] |
| --- | --- | --- |
| 100% | Cc1ccnc(N2CCN(CCCCC3Cn4c(-c5cc(C)c(O)c(C)c5)c(C)c5cccc(c54)O3)CC2)c1 (centres unmarked) [Example 18] | 78% |
| 97% | Cc1ccnc(N2CCN(CCC3Cn4c(-c5ccc(O)cc5)c(C)c5c(F)ccc(c54)O3)CC2)c1 (centres unmarked) [Example 22] | 84% |
| 100% | Cc1ccnc(N2CCN(C(=O)CC3Cn4c(-c5ccc(O)cc5)c(C)c5cccc(c54)O3)CC2)c1 (centres unmarked) [Example 17] | 99% |
| 63% | Cc1ccnc(N2CCN(C(=O)CCC3Cn4c(-c5cc(C)c(O)c(C)c5)c(C)c5c(F)ccc(c54)O3)CC2)c1 (centres unmarked) [Example 54] | 65% |
